Results reported in patent publication US20070099963A1, “Nematicidal compositions and methods” (priority 2005, published 2007).

How the values were obtained:
Thrips [1] = assay: Thrips damage rating on cotton plants (Example 1); type: in vivo; conditions: cotton Delta and Pineland variety 555, rating 1 = no damage, 5 = plant dead; for Thrips Damage Rating 3 weeks: 3 weeks after planting; for Thrips Damage Rating 4 weeks: 4 weeks after planting
Description: This example illustrates the effect of a composition of the invention on cotton plant damage and plant height for cotton plants planted in soil known to have nematode (Rotylenchulus reniformis) pressure. The cotton plants utilized were commercially available Delta and Pineland variety 555.
The compositions described in Table 1 below were applied either as a seed treatment (Samples B, C, and E-G) or in furrow (Sample D) at the respective application rates set forth in Table 1.

Thrips [2] = assay: Thrips damage rating on cotton plants (Example 2); type: in vivo; conditions: Fibermax cotton variety 960, rating 1 = no damage, 5 = plant dead; for Thrips Damage Rating 3 weeks: 3 weeks after planting; for Thrips Damage Rating 4 weeks: 4 weeks after planting
Description: This example illustrates the effect of the compositions from Table 1 for cotton plants planted in soil known to have nematode (Rotylenchulus reniformis) pressure. FIGS. 4 and 5 illustrate the Thrips damage ratings at three and four weeks, respectively, after planting. FIG. 6 illustrates the plant height seven weeks after planting. The cotton plants utilized were commercially available Fibermax cotton variety 960.

Row | Compound | Thrips Damage Rating 3 weeks (Thrips [1]) | Thrips Damage Rating 4 weeks (Thrips [1]) | Thrips Damage Rating 3 weeks (Thrips [2]) | Thrips Damage Rating 4 weeks (Thrips [2])
1 | O=[N+]([O-])NC1=NCCN1Cc1ccc(Cl)nc1 [B, imidacloprid] | 2 | 2.3 | 2.63 | 2.5
2 | O=[N+]([O-])NC1=NCCN1Cc1ccc(Cl)nc1 [E, imidacloprid] | 2.25 | 2.4 | 2.88 | 3
3 | CNC(=O)O/N=C/C(C)(C)SC [Sample D, aldicarb] | 1.13 | 1.5 | 2.5 | 2.1
